# Legend:
# [1] = absorption from the gastro-intestinal tract; type: in vivo; details: humans
# Experimental: The preferred method of administration in humans is intranasal administration, since absorption of the compound from the gastro-intestinal tract is only slight and parenteral administration is inappropriate for the patient. About 0.1 ml of a buffer solution, in which the necessary quantity of the active compound is dissolved, is sprayed into the nose via a spray jet, by means of a dosing atomizer.
# [2] = solubility in aqueous buffer solutions; type: physicochemical
# Text: This makes the compound suitable for intranasal administration, for which, as shown by experience, solubility can be the limiting factor.
# [3] = tested on: gonadoliberin biological action; details: D-aminoacid in position 6 with tert.-butyl type protective group; cited from earlier work
absorption from the gastro-intestinal tract [1],solubility in aqueous buffer solutions ([2]; aqueous buffer solutions),"solubility compared with other gonadoliberin analogs ([2]; versus analogs of comparable effectiveness, particularly the D-Trp^6 or D-His(Bzl)^6 analogs)",SMILES,biological action of position-6 substituted gonadoliberin derivative [3]
only slight,good solubility,appreciably greater,CCNC(=O)[C@@H]1CCCN1C(=O)[C@H](CCCNC(=N)N)NC(=O)[C@H](CC(C)C)NC(=O)[C@@H](CCCC(=O)OC(C)(C)C)NC(=O)[C@H](Cc1ccc(O)cc1)NC(=O)[C@H](CO)NC(=O)[C@H](Cc1c[nH]c2ccccc12)NC(=O)[C@H](Cc1c[nH]cn1)NC(=O)[C@@H]1CCC(=O)N1 [nonapeptide],
,,,CC(C)(C)OC[C@@H](N)C(=O)O [O-tert.-butyl-D-serine],strongest biological action

# From US4395400A, “Nonapeptide, a process for its preparation, an agent containing it and its use” (Hoechst Aktiengesellschaft, priority 1980, dated 1983)
